Test system: Trypanosoma brucei
Assay: ALAMARBLUE cell viability / growth assay of T. brucei cells
Format: cell-based
Conditions: T. brucei, 72 hours, normalized to DMSO control; for inhibition at 2 µM / inhibition at 5 µM: Trypanosoma brucei
Procedure: To determine cell growth rate, WT and two TbRPA1 RNAi KD strains (KD1 and KD2) were seeded at a density of 1×10^5 cells/ml and cultured with or without tetracycline for the induction of RNAi. Cells were counted every 12 hours for 2 days. To determine the viability of TbRPA1-depleted cells, ALAMARBLUE® assay (Thermo Fisher, an established colorimetric technique that detects metabolically active cells) was used. Cells from each time point were incubated with ALAMARBLUE® dye for 4-6 hours and percentage of live cells was determined by measuring resorufin converted from resazurin by reducing environment of live cells. Synergy H1 microplate reader (BioTek) was used with 560/590 nm (excitation/emission) filter settings and Relative Fluorescence Unit (RFU) values were obtained. The percentage of viable cells were calculated from the RFU values.
The initial assessment of JC-229's inhibitory effect on T. brucei cell growth was performed at 50 μM concentration. Trypanosome cells were seeded at 1×10^3 cells/ml density in 180 μl in a 96-well culture plate in triplicate. These cells were incubated with 50 μM JC-229 for 24, 48, and 72 hours. DMSO was used as a vehicle control at 0.0075%. JC-229-treated culture and control cultures were analyzed with the ALAMARBLUE® dye as described above.
To obtain the EC50 value of JC-229, T. brucei cells were seeded at 1×10^3 cells/ml density in 180 μl in a 96-well culture plate in triplicate. These cells were incubated for 72 hours with increasing concentrations of JC-229, (0.5 μM to 50 μM) and cell viability was determined using the ALAMARBLUE® dye as described above.
Trypanosoma brucei cytotoxicity of JC-229 and analogs were measured using ALAMARBLUE® assay (Rampersad, S. N. Multiple applications of ALAMARBLUE® as an indicator of metabolic function and cellular health in cell viability bioassays. Sensors (Basel) 12, 12347-12360 (2012). Trypanosome cells were seeded at 1×10^3 cells/ml density in 180 μl in a 96-well culture plate in triplicate. These cells were incubated with indicated concentration of JC compounds for 72 hours. DMSO was used as a vehicle control at 0.0075%. JC compound-treated cultures were then incubated with ALAMARBLUE® dye for 4-6 hours and percentage of live cells was determined using Synergy H1 microplate reader (BioTek) with 560/590 nm (excitation/emission) filter settings and Relative Fluorescence Unit (RFU) values were obtained. The percentage of viable cells were calculated from the RFU values by normalizing to DMSO treated control. In one embodiment, the inhibitor is characterized in that it provides at least 50%, at least 80% or at least 90% inhibition at a concentration of 5 μM when tested in accordance with the above conditions.

| SMILES | % Inhibition @2 μM [%] | % Inhibition @5 μM [%] | % Inhibition @10 μM [%] | inhibition at 2 µM [%] | inhibition at 5 µM [%] |
| --- | --- | --- | --- | --- | --- |
| Cc1ccc(C(=O)Nc2ccc(Cl)c(Cl)c2)cc1S(=O)(=O)N1CCCC(N)C1.O=C(O)C(F)(F)F (centres unmarked) [JC-929] | 5 | 99.7 | 100 | – | – |
| Cc1ccc(C(=O)Nc2ccc(Cl)c(Cl)c2)cc1S(=O)(=O)N1CCC(N)CC1.O=C(O)C(F)(F)F [JC-906] | 23 | 100 | 100 | – | – |
| Cc1ccc(C(=O)Nc2cc(C(F)(F)F)n[nH]2)cc1S(=O)(=O)Nc1ccc(Cl)c(Cl)c1 [JC-866] | −15 | – | 23 | – | – |
| Cc1ccc(C(=O)Nc2ccc(Cl)c(Cl)c2)cc1S(=O)(=O)NCCNC(=O)Cc1ccccc1 [JC-953] | −34 | 32 | – | – | – |
| Cc1ccc(C(=O)Nc2ccc(Cl)c(Cl)c2)cc1S(=O)(=O)NCCNS(=O)(=O)c1cc(C(=O)Nc2ccc(Cl)c(Cl)c2)ccc1C [JC-1021] | 0 | −5 | – | – | – |
| Cc1ccc(C(=O)Nc2ccc(Cl)c(Cl)c2)cc1S(=O)(=O)N1CCCC(NS(C)(=O)=O)C1 (centres unmarked) [JC-964] | −16 | −23 | – | – | – |
| Cc1ccc(S(=O)(=O)Nc2ccc(Cl)c(Cl)c2)cc1C(=O)Nc1ccc(Cl)c(Cl)c1 [JC-858] | 13 | 86 | 100 | – | – |
| Cc1ccc(C(=O)Nc2ccc(Cl)c(Cl)c2)cc1S(=O)(=O)NCc1cccc2ccccc12 [JC-887] | −9 | – | 14 | – | – |
| Cc1ccc(C(=O)Nc2ccc(Cl)c(Cl)c2)cc1S(=O)(=O)N1CCCC(NC(=O)Cc2ccccc2)C1 (centres unmarked) [JC-930] | 4 | 99.7 | 100 | – | – |
| Cc1ccc(C(=O)Nc2ccc(Cl)c(Cl)c2)cc1S(=O)(=O)NCCCNS(=O)(=O)c1ccc(Br)cc1 [JC-998] | 0 | 100 | – | – | – |
| Cc1cc(NS(=O)(=O)c2cc(C(=O)Nc3ccc(Cl)c(Cl)c3)ccc2C)n[nH]1 [JC-894] | −4 | – | 2 | – | – |
| Cc1ccc(C(=O)Nc2ccc(Cl)c(Cl)c2)cc1S(=O)(=O)NCCCCCO [JC-897] | 0 | – | 36 | – | – |
| Cc1ccc(C(=O)Nc2ccc(Cl)c(Cl)c2)cc1S(=O)(=O)Nc1ccncc1 [JC-915] | −11 | – | 6 | – | – |
| Cc1ccc(C(=O)Nc2ccc(Cl)c(Cl)c2)cc1S(=O)(=O)N1CCC(F)(F)CC1 [JC-886] | 3 | 93.7 | 100 | – | – |
| Cc1ccc(C(=O)Nc2ccc(Cl)c(Cl)c2)cc1S(=O)(=O)NCCNC(=S)Nc1cccc(C(F)(F)F)c1 [JC-1000] | 21 | 58 | – | – | – |
| Cc1ccc(C(=O)NCCc2ccccc2)cc1S(=O)(=O)Nc1ccc(Cl)c(Cl)c1 [JC-859] | 13 | – | 9 | – | – |
| Cc1ccc(C(=O)N2CCOCC2)cc1S(=O)(=O)Nc1ccc(Cl)c(Cl)c1 [JC-867] | −14 | – | 31 | – | – |
| Cc1ccc(C(=O)Nc2ccc(Cl)c(Cl)c2)cc1S(=O)(=O)C1CCC(NC(=O)OC(C)(C)C)CC1 (centres unmarked) [JC-924] | −2 | 99.4 | 100 | – | – |
| Cc1ccc(C(=O)Nc2ccc(Cl)c(Cl)c2)cc1S(=O)(=O)C1CCCNC1.O=C(O)C(F)(F)F (centres unmarked) [JC-951] | 29 | 100 | – | – | – |
| Cc1ccc(C(=O)Nc2ccc(Cl)c(Cl)c2)cc1S(=O)(=O)Nc1nc2ccccc2[nH]1 [JC-873] | −4 | 1 | 100 | – | – |
| Cc1ccc(C(=O)Nc2ccc(Cl)c(Cl)c2)cc1S(=O)(=O)N1CCC(NC(=O)CCc2ccccc2)CC1 [JC-968] | 1 | 5 | – | – | – |
| Cc1ccc(C(=O)Nc2ccc(Cl)c(Cl)c2)cc1S(=O)(=O)N1CCCC(NC(=S)Nc2cccc(C(F)(F)F)c2)C1 (centres unmarked) [JC-1005] | 100 | 100 | – | – | – |
| CC(=O)NCCNS(=O)(=O)c1cc(C(=O)Nc2ccc(Cl)c(Cl)c2)ccc1C [JC-919] | −10 | – | 18 | – | – |

| SMILES | % Inhibition @2 μM [%] | % Inhibition @5 μM [%] | % Inhibition @10 μM [%] | inhibition at 2 µM [%] | inhibition at 5 µM [%] |
| --- | --- | --- | --- | --- | --- |
| Cc1ccc(C(=O)Nc2ccc(Cl)c(Cl)c2)cc1S(=O)(=O)NCCNC(=O)OC(C)(C)C [JC-917] | −14 | – | 73 | – | – |
| Cc1ccc(C(=O)Nc2ccc(Cl)c(Cl)c2)cc1S(=O)(=O)N1CCC(NC(=S)Nc2ccc(F)cc2)CC1 [JC-970] | – | – | – | 100 | 100 |
| Cc1ccc(C(=O)Nc2ccc(Cl)c(Cl)c2)cc1S(=O)(=O)NCCNC(=S)Nc1ccc(C(F)(F)F)cc1 [JC-1003] | 0 | 80 | – | – | – |
| Cc1ccc(C(=O)Nc2ccc(Cl)c(Cl)c2)cc1S(=O)(=O)NC1CC(N)C1 (centres unmarked) [JC-957] | −30 | 84 | – | – | – |
| O=C(Nc1ccc(Cl)c(Cl)c1)c1ccc(O)c(S(=O)(=O)Nc2ccc(Cl)c(Cl)c2)c1 [JC-907] | 12 | – | 5 | – | – |
| Cc1ccc(C(=O)Nc2ccc(Cl)c(Cl)c2)cc1S(=O)(=O)NC(CO)(CO)CO [JC-893] | 2 | – | −5 | – | – |
| Cc1ccc(C(=O)Nc2ccc(Cl)c(Cl)c2)cc1S(=O)(=O)N(CCCCO)Cc1ccccc1 [JC-891] | 13 | 88.8 | 100 | – | – |
| Cc1ccc(C(=O)NCCO)cc1S(=O)(=O)Nc1ccc(Cl)c(Cl)c1 [JC-864] | −20 | – | 42 | – | – |
| Cc1ccc(C(=O)Nc2ccc(Cl)c(Cl)c2)cc1S(=O)(=O)NCCNS(=O)(=O)c1ccc(CBr)cc1 [JC-993] | 76 | 100 | – | – | – |
| Cc1ccc(C(=O)Nc2ccc(Cl)c(Cl)c2)cc1S(=O)(=O)C1CCCC(NC(=O)OC(C)(C)C)C1 (centres unmarked) [JC-954] | 10 | 35 | – | – | – |
| COc1ccc(NC(=S)NC2CCN(S(=O)(=O)c3cc(C(=O)Nc4ccc(Cl)c(Cl)c4)ccc3C)CC2)cc1 [JC-1016] | 52 | 100 | – | – | – |
| Cc1ccc(C(=O)Nc2ccc(Cl)c(Cl)c2)cc1S(=O)(=O)N1CCCC(NC(=S)Nc2ccc(Cl)c(Cl)c2)C1 (centres unmarked) [JC-1007] | 100 | 101 | – | – | – |
| Cc1ccc(C(=O)Nc2ccc(Cl)c(Cl)c2)cc1S(=O)(=O)N1CCC(NC(=O)Cc2ccccc2)CC1 [JC-967] | 15 | −24 | – | – | – |
| Cc1ccc(C(=O)Nc2ccc(Cl)c(Cl)c2)cc1S(=O)(=O)N1CCC[C@@H](N)C1 [JC-963] | – | – | – | 96 | 100 |
| Cc1ccc(C(=O)Nc2ccc(Cl)c(Cl)c2)cc1S(=O)(=O)NCCNC(=S)Nc1ccc(Cl)c(Cl)c1 [JC-1002] | 34 | 100 | – | – | – |
| COc1ccc(NC(=S)NC2CCCN(S(=O)(=O)c3cc(C(=O)Nc4ccc(Cl)c(Cl)c4)ccc3C)C2)cc1 (centres unmarked) [JC-1004] | 32 | 94 | – | – | – |
| Cc1ccc(C(=O)Nc2ccc(Cl)c(Cl)c2)cc1S(=O)(=O)N1CCCC(NC(=O)OC(C)(C)C)C1 (centres unmarked) [JC-962] | 36 | 100 | – | – | – |
| Cc1ccc(C(=O)Nc2ccc(Cl)c(Cl)c2)cc1S(=O)(=O)NCCNS(=O)(=O)c1cccc(F)c1 [JC-996] | −19 | 69 | – | – | – |
| Cc1ccc(C(=O)Nc2ccc(Cl)c(Cl)c2)cc1S(=O)(=O)NCCCN.O=C(O)C(F)(F)F [JC-933] | 5 | – | 60 | – | – |
| Cc1ccc(C(=O)Nc2ccc(Cl)c(Cl)c2)cc1S(=O)(=O)Nc1ccc(O)cc1 [JC-912] | −5 | – | 58 | – | – |
| Cc1ccc(C(=O)Nc2ccc(Cl)c(Cl)c2)cc1S(=O)(=O)N1CCN(C)CC1 [JC-916] | −2 | – | 36 | – | – |
| Cc1ccc(C(=O)Nc2ccc(Cl)c(Cl)c2)cc1S(=O)(=O)N1CCCC(NC(=S)Nc2ccc(C(F)(F)F)cc2)C1 (centres unmarked) [JC-1008] | 100 | 100 | – | – | – |
